The results in this text go back to DBAASP.

Structures are written as SMILES. In brackets after ≈: the same amount, converted by molar mass. Several values for one entry are separate records, joined by “and”; a condition that tells them apart may be missing. Equal entries are not always repeated.

By MIC is commonly meant the lowest concentration found to suppress growth. Low values mean a more susceptible organism, high ones a less susceptible organism.

Common to all, as to test: ≥ marks a high value that may be exact or a test limit, other limits are often not marked, values filed in µg/mL are converted to µM
Assay [1] deals with Staphylococcus aureus ATCC 29213.
For assay [2], the system named is Escherichia coli ATCC 25922.
Assay [3] has as its system Pseudomonas aeruginosa ATCC 27853.
The subject of assay [4] is Staphylococcus aureus ATCC 25923.

In the case of `CC(C)C[C@H](NC(=O)[C@H](C)NC(=O)[C@H](Cc1ccc(O)cc1)NC(=O)[C@H](CC(C)C)NC(=O)[C@H](CCCN=C(N)N)NC(=O)[C@H](C)NC(=O)[C@H](CC(C)C)NC(=O)[C@H](CO)NC(=O)[C@H](C)NC(=O)[C@H](CC(C)C)NC(=O)[C@@H](N)CC(=O)O)C(=O)N[C@@H](C)C(=O)N[C@@H](CCCN=C(N)N)C(N)=O` [DLASLARLYALAR], the MIC in assay [1] and in assay [2] was over 489 µM in each case.
Consider `CC[C@H](C)[C@H](NC(=O)[C@@H](NC(=O)[C@@H](N)Cc1ccccc1)[C@@H](C)CC)C(=O)N[C@@H](Cc1c[nH]c2ccccc12)C(=O)N1CCC[C@H]1C(=O)N[C@@H](CC(C)C)C(=O)N[C@@H](CCCN=C(N)N)C(=O)N[C@@H](Cc1ccc(O)cc1)C(=O)N[C@@H](CCCN=C(N)N)C(=O)N[C@@H](CCCCN)C(N)=O` [FIIWPLRYRK], for which the minimal inhibitory concentration (MIC) in assay [1] was 359 µM (≈ 500 µg/mL); in assay [2] it was 180 µM (≈ 250 µg/mL).
In the case of `CC[C@H](C)[C@H](NC(=O)[C@H](CCCN=C(N)N)NC(=O)[C@H](CCC(N)=O)NC(=O)[C@@H](NC(=O)[C@H](C)NC(=O)[C@H](CCCN=C(N)N)NC(=O)[C@H](CCCCN)NC(=O)[C@@H](N)Cc1ccccc1)C(C)C)C(=O)N[C@@H](CCCCN)C(=O)N[C@@H](CC(=O)O)C(=O)N[C@@H](Cc1ccccc1)C(=O)N[C@@H](CC(C)C)C(=O)N[C@@H](CCCN=C(N)N)C(=O)O` [FKRAVQRIKDFLR], the MIC in assay [1] was over 40 µM; in assay [2], 5 µM (≈ 8.39 µg/mL).
`CC(C)C[C@H](NC(=O)[C@H](CC(C)C)NC(=O)[C@H](CCCCN)NC(=O)[C@H](CCCCN)NC(=O)[C@H](C)NC(=O)[C@H](CC(C)C)NC(=O)[C@H](CCCCN)NC(=O)[C@H](CC(C)C)NC(=O)[C@@H](N)Cc1ccccc1)C(N)=O` [FLKLAKKLL]: in assay [3], the MIC is 59.6 µM and 119 µM.
As for `CC[C@H](C)[C@H](NC(=O)[C@H](C)NC(=O)[C@@H](NC(=O)[C@H](C)NC(=O)[C@H](CCCCN)NC(=O)[C@H](C)NC(=O)[C@H](CC(C)C)NC(=O)[C@H](CCCCN)NC(=O)CNC(=O)[C@H](CC(C)C)NC(=O)[C@@H](NC(=O)[C@H](CO)NC(=O)CNC(=O)[C@H](C)NC(=O)[C@@H](NC(=O)[C@H](CO)NC(=O)[C@H](C)NC(=O)[C@H](CCSC)NC(=O)CN)[C@@H](C)O)C(C)C)C(C)C)C(=O)NCC(=O)N[C@@H](C)C(=O)N[C@@H](CC(C)C)C(N)=O` [GMASTAGSVLGKLAKAVAIGAL], the MIC in assay [4] and in assay [2] was over 200 µM throughout.
As to `CC(C)C[C@H](NC(=O)[C@H](CCCCN)NC(=O)[C@H](C)NC(=O)[C@H](CC(C)C)NC(=O)[C@H](CCCCN)NC(=O)[C@H](CCCCN)NC(=O)[C@H](C)NC(=O)[C@H](CC(C)C)NC(=O)[C@H](CCCCN)NC(=O)[C@H](C)NC(=O)[C@H](CC(C)C)NC(=O)[C@H](CCCCN)NC(=O)[C@H](CCCCN)NC(=O)[C@H](C)NC(=O)[C@H](CC(C)C)NC(=O)[C@H](CCCCN)NC(=O)[C@H](C)NC(=O)[C@H](CC(C)C)NC(=O)[C@@H](N)CCCCN)C(=O)N[C@@H](C)C(=O)N[C@@H](CCCCN)C(N)=O` [KLAKLAKKLAKLAKKLAKLAK], the MIC in assay [4], in assay [3] and in assay [2] was 4 µM (≈ 9.1 µg/mL) in each case.
Take `CC(C)C[C@H](NC(=O)[C@H](CCCCN)NC(=O)[C@H](C)NC(=O)[C@H](CC(C)C)NC(=O)[C@@H](N)CCCCN)C(=O)N[C@@H](C)C(=O)N[C@@H](CCCCN)C(N)=O` [KLAKLAK]: the MIC in assay [4], in assay [3] and in assay [2] was over 95 µM each time.
Take `CC(C)[C@H](NC(=O)[C@H](CC(=O)O)NC(=O)[C@H](CO)NC(=O)[C@@H](N)CCCCN)C(=O)N[C@@H](CCCN=C(N)N)C(=O)N[C@@H](CCCN=C(N)N)C(=O)N[C@@H](Cc1c[nH]c2ccccc12)C(=O)N[C@@H](CCCN=C(N)N)C(=O)N[C@@H](CO)C(=O)N[C@@H](CCCN=C(N)N)C(=O)N[C@@H](Cc1ccc(O)cc1)C(N)=O` [KSDVRRWRSRY]: the minimal inhibitory concentration (MIC) in assay [4], in assay [3] and in assay [2] was over 100 µM in each case.
With `CC[C@H](C)[C@H](NC(=O)[C@H](CC(C)C)NC(=O)[C@H](C)NC(=O)[C@@H]1CCCN1C(=O)[C@H](CC(C)C)NC(=O)CNC(=O)[C@@H](NC(=O)[C@@H](NC(=O)[C@H](CC(C)C)NC(=O)[C@@H](NC(=O)[C@H](CCCCN)NC(=O)[C@H](CCCCN)NC(=O)[C@H](C)NC(=O)[C@H](C)NC(=O)[C@H](CO)NC(=O)[C@@H](NC(=O)[C@H](CC(C)C)NC(=O)[C@H](CCCCN)NC(=O)[C@H](CCCCN)NC(=O)[C@@H](NC(=O)[C@H](Cc1ccccc1)NC(=O)[C@H](CCCCN)NC(=O)[C@H](CCCCN)NC(=O)[C@H](Cc1c[nH]c2ccccc12)NC(=O)[C@@H](N)CCCCN)[C@@H](C)CC)[C@@H](C)O)C(C)C)[C@@H](C)O)[C@@H](C)O)C(=O)N[C@@H](CO)C(=O)O` [KWKKFIKKLTSAAKKVLTTGLPALIS], the MIC in assay [3] was 4 µM (≈ 11.5 µg/mL). This lies in the single-digit micromolar range.
As to `CC(C)C[C@H](NC(=O)[C@H](C)NC(=O)[C@H](CCCCN)NC(=O)[C@H](CCCCN)NC(=O)[C@@H](N)CC(C)C)C(=O)N[C@@H](CCCCN)C(=O)N[C@@H](CC(C)C)C(=O)N[C@@H](CC(C)C)C(=O)N[C@@H](CCCCN)C(=O)N[C@@H](CCCCN)C(=O)N[C@@H](CC(C)C)C(=O)N[C@@H](CC(C)C)C(=O)N[C@@H](CCCCN)C(=O)N[C@@H](CC(C)C)C(=O)N[C@@H](C)C(=O)NCC(=O)O` [LKKALKLLKKLLKLAG], the MIC in assay [1] and in assay [2] was 5 µM (≈ 8.89 µg/mL) in each case.
Consider `CC(C)C[C@H](NC(=O)[C@H](CCCCN)NC(=O)[C@H](CC(C)C)NC(=O)[C@H](CC(C)C)NC(=O)[C@H](CCCCN)NC(=O)[C@H](CCCCN)NC(=O)[C@H](CC(=O)O)NC(=O)[C@H](CC(C)C)NC(=O)[C@H](CCCCN)NC(=O)[C@H](CC(C)C)NC(=O)[C@H](CC(C)C)NC(=O)[C@H](CCCCN)NC(=O)[C@H](CCCCN)NC(=O)[C@@H](N)CC(C)C)C(=O)N[C@@H](C)C(=O)NCC(=O)O` [LKKLLKLDKKLLKLAG], for which the MIC in assay [1] is over 40 µM; in assay [2], 10 µM (≈ 18.2 µg/mL).
For `CC(C)C[C@H](NC(=O)[C@H](C)NC(=O)[C@H](CCCCN)NC(=O)[C@H](CCCCN)NC(=O)[C@H](CC(C)C)NC(=O)[C@H](CC(C)C)NC(=O)[C@H](CCCCN)NC(=O)[C@H](CC(C)C)NC(=O)[C@H](CC(C)C)NC(=O)[C@H](CCCCN)NC(=O)[C@H](CCCCN)NC(=O)[C@@H](N)CC(C)C)C(=O)N[C@@H](CCCCN)C(=O)N[C@@H](CC(C)C)C(=O)N[C@@H](C)C(=O)NCC(=O)O` [LKKLLKLLKKALKLAG], the minimal inhibitory concentration (MIC) in assay [1] and in assay [2] was 5 µM (≈ 8.89 µg/mL) throughout.
Take `CC(=O)N[C@@H](CC(C)C)C(=O)N[C@@H](CCCCN)C(=O)N[C@@H](CCCCN)C(=O)N[C@@H](CC(C)C)C(=O)N[C@@H](CC(C)C)C(=O)N[C@@H](CCCCN)C(=O)N[C@@H](CC(C)C)C(=O)N[C@@H](CC(C)C)C(=O)N[C@@H](CCCCN)C(=O)N[C@@H](CCCCN)C(=O)N1CCC[C@H]1C(=O)N[C@@H](CC(C)C)C(=O)N[C@@H](CCCCN)C(=O)N[C@@H](CC(C)C)C(N)=O` [LKKLLKLLKKPLKL]: the results for the MIC in assay [1] and in assay [2] were 40 µM (≈ 68.7 µg/mL) and 28.3 µM (≈ 48.6 µg/mL), respectively.
As for `CC(=O)N[C@@H](CC(C)C)C(=O)N[C@@H](CCCCN)C(=O)N[C@@H](CCCCN)C(=O)N[C@@H](CC(C)C)C(=O)N[C@@H](CC(C)C)C(=O)N[C@@H](CCCCN)C(=O)N[C@@H](CC(C)C)C(=O)N1CCC[C@H]1C(=O)N[C@@H](CCCCN)C(=O)N[C@@H](CCCCN)C(=O)N[C@@H](CC(C)C)C(=O)N[C@@H](CC(C)C)C(=O)N[C@@H](CCCCN)C(=O)N[C@@H](CC(C)C)C(N)=O` [LKKLLKLPKKLLKL], the MIC in assay [1] is over 80 µM; in assay [2] it was 56.6 µM (≈ 97.1 µg/mL).
On to `CC(C)C[C@H](NC(=O)[C@H](Cc1c[nH]c2ccccc12)NC(=O)[C@H](C)NC(=O)CNC(=O)[C@H](Cc1c[nH]c2ccccc12)NC(=O)[C@H](CC(N)=O)NC(=O)[C@@H](N)CC(C)C)C(=O)N[C@@H](CCCCN)C(=O)N[C@@H](Cc1cnc[nH]1)C(=O)N[C@@H](Cc1c[nH]c2ccccc12)C(=O)N[C@@H](Cc1c[nH]c2ccccc12)C(=O)N[C@@H](CCCCN)C(=O)O` [LNWGAWLKHWWK], for which the MIC in assay [3] is 32 µM (≈ 52 µg/mL).
For the compound `CC(C)C[C@H](NC(=O)[C@H](CC(=O)O)NC(=O)[C@@H](NC(=O)[C@H](CCCCN)NC(=O)[C@H](CC(C)C)NC(=O)[C@@H](N)CCC(N)=O)C(C)C)C(=O)N[C@@H](Cc1c[nH]c2ccccc12)C(=O)NCC(=O)N[C@H](C(=O)N[C@@H](CCCN=C(N)N)C(N)=O)[C@@H](C)O` [QLKVDLWGTR], the MIC in assay [4], in assay [3] and in assay [2] was over 100 µM each time.
Turning to `NC(=O)[C@H](Cc1c[nH]c2ccccc12)NC(=O)[C@H](CCCN=C(N)N)NC(=O)[C@H](Cc1ccc(O)cc1)NC(=O)[C@H](CCCN=C(N)N)NC(=O)[C@H](Cc1c[nH]c2ccccc12)NC(=O)[C@@H](N)CCCN=C(N)N` [RWRYRW], the MIC in assay [4] was determined as 9.78 µM (≈ 9.99 µg/mL); in assay [3], 78.3 µM (≈ 79.9 µg/mL); in assay [2] it was 48.9 µM (≈ 50 µg/mL).
Take `CC[C@H](C)[C@H](NC(=O)[C@H](Cc1ccc(O)cc1)NC(=O)[C@H](CCC(N)=O)NC(=O)[C@H](CC(C)C)NC(=O)[C@H](C)NC(=O)[C@H](CCCCN)NC(=O)[C@H](CCCCN)NC(=O)[C@H](CCSC)NC(=O)[C@H](CCCCN)NC(=O)[C@H](CCCCN)NC(=O)[C@H](CCCCN)NC(=O)[C@H](CCCN=C(N)N)NC(=O)[C@H](CCCN=C(N)N)NC(=O)[C@H](Cc1ccc(O)cc1)NC(=O)[C@@H](N)CCCN=C(N)N)C(=O)N[C@@H](CCCCN)C(=O)N[C@@H](CC(C)C)C(N)=O` [RYRRKKKMKKALQYIKL]: the MIC in assay [3] and in assay [2] was over 100 µM each time.
Turning to `CSCC[C@H](NC(=O)[C@H](CCCN=C(N)N)NC(=O)[C@@H](N)Cc1ccc(O)cc1)C(=O)N[C@@H](Cc1c[nH]c2ccccc12)C(=O)N[C@@H](CCCN=C(N)N)C(=O)N[C@@H](Cc1c[nH]c2ccccc12)C(=O)N[C@@H](C)C(=O)N[C@@H](Cc1c[nH]c2ccccc12)C(=O)N[C@@H](CCCN=C(N)N)C(=O)N[C@@H](Cc1c[nH]c2ccccc12)C(=O)N[C@@H](CCCN=C(N)N)C(N)=O` [YRMWRWAWRWR], the values for the MIC in assay [4], in assay [3] and in assay [2] were 1.43 µM (≈ 2.5 µg/mL), 11.4 µM (≈ 20 µg/mL) and 5.7 µM (≈ 9.99 µg/mL), respectively.
